Reference: patent US20090233796A1, “HERBICIDAL COMPOSITION” (SYNGENTA CROP PROTECTION, INC., priority 2004, published 2009)

Key:
Assay type in all cases: in vivo
STELLARIA MEDIA = assay: Compound (A) with triasulfuron, weed plots; conditions: 26 g per hectare; 30 DAA; No. 3.1
Procedure: In these tests, various weeds were treated with triasulfuron alone at a rate equivalent to 26 g per hectare, Compound (A) alone at a rate equivalent to 10 g per hectare, and to a mixture of triasulfuron and Compound (A) at rates equivalent to the sum of these. The compositions were formulated as an emulsifyable concentrate (EC).
The results in the table under each application are the percentage of the plants that were killed.

LOLIUM RIGIDUM = assay: Compound (A) with paraquat, weed plots; conditions: 700 g/ha; 41 DAA; No. 1.4
Procedure: (§1) In these tests, various weeds were treated with paraquat alone at rates equivalent to 700 g per hectare and 840 g per hectare, compound (A) alone at rates equivalent to 10 g per hectare and 20 g per hectare, and with a mixture of paraquat and compound (A) at rates equivalent to the sum of these. The compositions were formulated as an emulsifyable concentrate (EC).
(§2) The results in the table under each application are the percentage of the weeds plants that were killed.

SETARIA SP. = assay: Compound (A) with paraquat, weed plots; conditions: 700 g/ha; 27 DAA; No. 1.2
Procedure: as §1, §2

VERONICA PERSICA = assay: Compound (A) with paraquat, weed plots; conditions: 700 g/ha; 69 DAA; No. 1.6
Procedure: as §1, §2

SONCHUS ASPER = assay: Compound (A) with paraquat, weed plots; conditions: 840 g/ha; 32 DAA; No. 1.10
Procedure: as §1, §2

E[…]-GALLI = assay: Compound (A) with paraquat, weed plots; conditions: 700 g/ha; 51 DAA; No. 1.8
Procedure: as §1, §2

SETARIA VIRIDIS = assay: Compound (A) with paraquat, weed plots; conditions: 700 g/ha; 43 DAA; No. 1.3
Procedure: as §1, §2

DIGITARIA CILIARIS = assay: Compound (A) with paraquat, weed plots; conditions: 700 g/ha; 51 DAA; No. 1.7
Procedure: as §1, §2

CONYZA SP. = assay: Compound (A) with paraquat, weed plots; conditions: 700 g/ha, 5 DAA
Procedure: as §1, §2

LAMIUM PURPUREUM = assay: Compound (A) with paraquat, weed plots; conditions: 700 g/ha; 2 DAA; No. 1.5
Procedure: as §1, §2

CYPERUS ROTUNDUS = assay: Compound (A) with paraquat, weed plots; conditions: 840 g/ha; 56 DAA; No. 1.11
Procedure: as §1, §2

SMILES	percentage of the plants that were killed (STELLARIA MEDIA) [%]	percentage of the weeds plants that were killed (LOLIUM RIGIDUM) [%]	percentage of the weeds plants that were killed (SETARIA SP.) [%]	percentage of the weeds plants that were killed (VERONICA PERSICA) [%]	percentage of the weeds plants that were killed (SONCHUS ASPER) [%]	percentage of the weeds plants that were killed (E[…]-GALLI) [%]	percentage of the weeds plants that were killed (SETARIA VIRIDIS) [%]	percentage of the weeds plants that were killed (DIGITARIA CILIARIS) [%]	percentage of the weeds plants that were killed (CONYZA SP.; No. 1.1) [%]	percentage of the weeds plants that were killed (CONYZA SP.; No. 1.9) [%]	percentage of the weeds plants that were killed (LAMIUM PURPUREUM) [%]	percentage of the weeds plants that were killed (CYPERUS ROTUNDUS) [%]
COc1nc(C)nc(NC(=O)NS(=O)(=O)c2ccccc2OCCCl)n1 [Triasulfuron, triasulfuron, reference compound]	25											
C[n+]1ccc(-c2cc[n+](C)cc2)cc1 [paraquat, reference compound]		53	0	25	0	0	0	0	2	2	53	65
